Experimental data published in patent publication US11492385B2, “Long-acting co-agonists of the glucagon and GLP-1 receptors” (Merck Sharp & Dohme Corp., priority 2015, dated 2022).
pEC50: −log10 of the molar value. Starred links: 1 amine or outer side, 2 acyl side, 3 side chain; linkers in the order of their positions; H or OH if unused. Non-standard residues stand in square brackets, D forms with d. Residues, ends and D or L forms follow the SMILES beside them. Groups on a side chain read outwards from the residue. *: point of attachment. C20 diacid = O=C(O)CCCCCCCCCCCCCCCCCCC(=O)*; C19 diacid = O=C(O)CCCCCCCCCCCCCCCCCC(=O)*; C18 diacid = O=C(O)CCCCCCCCCCCCCCCCC(=O)*; C16 diacid = O=C(O)CCCCCCCCCCCCCCC(=O)*; γGlu = O=C(O)[C@H](CCC(=O)[*:2])N[*:1]; X1 = O=C([C@H]1CCC[C@@H]1N[*:1])[*:2]; Met(O2) = CS(=O)(=O)CC[C@H](N)C(=O)O; αMeF = C[C@](N)(Cc1ccccc1)C(=O)O; αMeD = C[C@](N)(CC(=O)O)C(=O)O; AEEA = NCCOCCOCC(=O)O; Aib = CC(C)(N)C(=O)O

Columns and labels:
human GCGR = target: T1, human GCGR (Homo sapiens, UniProt P47871); test: cAMP activity assay, cells expressing human GCGR; format: cell-based; conditions: for pEC50: cAMP production, cells expressing human GCGR, assay buffer with or without 20% human serum (not stated which), read-out: GCGR EC50 human; for hGCGR/hGLP1R (hTone): ratio of human GCGR EC50 to human GLP1R EC50
T1 construct: expressed in transfected cells; kept under Blasticidin and Hygromycin selection
T1 sequence (P47871 26-477): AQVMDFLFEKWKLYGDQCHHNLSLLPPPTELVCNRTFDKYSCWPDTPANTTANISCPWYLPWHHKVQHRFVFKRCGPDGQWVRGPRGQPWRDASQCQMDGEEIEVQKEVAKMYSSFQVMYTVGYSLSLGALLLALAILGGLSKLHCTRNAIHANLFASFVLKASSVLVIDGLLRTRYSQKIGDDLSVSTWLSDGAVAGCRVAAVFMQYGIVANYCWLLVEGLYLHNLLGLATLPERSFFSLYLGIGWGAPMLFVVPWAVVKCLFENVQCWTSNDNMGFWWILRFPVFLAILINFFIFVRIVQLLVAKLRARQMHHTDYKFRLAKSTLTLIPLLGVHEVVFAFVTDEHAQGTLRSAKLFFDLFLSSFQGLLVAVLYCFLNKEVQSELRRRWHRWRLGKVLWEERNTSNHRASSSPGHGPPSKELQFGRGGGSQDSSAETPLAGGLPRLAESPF
Description: (§1) Activity of the peptides at the Glucagon receptor (GCGR) and GLP-1 receptor (GLP1R) was measured in a cAMP activity assay. Peptides were dissolved in 100% DMSO and serially diluted to generate 10 point titrations. The peptide solutions were then transferred into 384-well assay plates (150 nL/well). […] Production of cAMP was determined using […] kits (DiscoverX) following manufacturer protocol. The plates were incubated for overnight at room temperature in the dark. Luminescence was measured using an EnVision Multilabel plate reader (Perkin Elmer). Native GLP-1 and Glucagon (Bachem) are used as control peptides. EC50 values were calculated using uses a 4 parameter logistic fit based on the Levenberg-Marquardt algorithm.

human GLP1R = target: T2, human GLP1R (Homo sapiens, UniProt P43220); test: cAMP activity assay, cells expressing human GLP1R; format: cell-based; conditions: cAMP production, assay buffer with or without 20% human serum (not stated which)
T2 construct: expressed in transfected cells; kept under Blasticidin and Hygromycin selection
T2 sequence (P43220 24-463): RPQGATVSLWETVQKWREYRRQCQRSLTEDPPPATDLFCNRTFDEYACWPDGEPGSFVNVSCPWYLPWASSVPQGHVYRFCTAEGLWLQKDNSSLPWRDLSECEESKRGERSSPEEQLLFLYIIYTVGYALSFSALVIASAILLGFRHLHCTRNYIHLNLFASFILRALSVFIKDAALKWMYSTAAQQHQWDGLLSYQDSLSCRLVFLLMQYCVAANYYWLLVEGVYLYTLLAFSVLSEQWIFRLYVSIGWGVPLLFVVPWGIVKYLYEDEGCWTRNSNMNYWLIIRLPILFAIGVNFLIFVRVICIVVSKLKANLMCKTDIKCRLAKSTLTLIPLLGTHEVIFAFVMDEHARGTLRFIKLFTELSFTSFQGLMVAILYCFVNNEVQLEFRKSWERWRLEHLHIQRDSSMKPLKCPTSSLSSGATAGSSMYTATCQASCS
Description: as §1

SMILES	pEC50 (human GCGR)	hGCGR/hGLP1R (hTone) (human GCGR)	pEC50 (human GLP1R)
CC(C)C[C@H](NC(=O)[C@H](Cc1ccc(O)cc1)NC(=O)[C@H](CCCCN)NC(=O)[C@H](CO)NC(=O)[C@H](Cc1ccc(O)cc1)NC(=O)[C@H](CC(=O)O)NC(=O)[C@H](CO)NC(=O)[C@@H](NC(=O)[C@H](Cc1ccccc1)NC(=O)[C@@H](NC(=O)CNC(=O)[C@H](CCC(N)=O)NC(=O)[C@@H](CO)NC(=O)[C@@H](N)Cc1c[nH]cn1)[C@@H](C)O)[C@@H](C)O)C(=O)N[C@@H](CC(=O)O)C(=O)N[C@@H](CCC(=O)O)C(=O)N[C@@H](CCCNC(=N)N)C(=O)N[C@@H](C)C(=O)N[C@@H](C)C(=O)N[C@@H](CCC(N)=O)C(=O)N[C@@H](CCCCNC(=O)COCCOCCNC(=O)COCCOCCNC(=O)CC[C@H](NC(=O)CCCCCCCCCCCCCCC(=O)O)C(=O)O)C(=O)N[C@@H](Cc1ccccc1)C(=O)N[C@H](C(=O)N[C@@H](CCC(N)=O)C(=O)N[C@@H](Cc1c[nH]c2ccccc12)C(=O)N[C@@H](CC(C)C)C(=O)N[C@@H](CCS(C)(=O)=O)C(=O)N[C@@H](CC(=O)O)C(=O)N[C@H](C(N)=O)[C@@H](C)O)C(C)C [compound 16] (H-H[dS]QGTFTSDYSKYLDERAAQK([AEEA-AEEA-γGlu-C16 diacid])FVQWL[Met(O2)]DT-NH2)	10.52	0.09	9.51
CC(C)C[C@H](NC(=O)[C@H](Cc1ccc(O)cc1)NC(=O)[C@H](CCCCN)NC(=O)[C@H](CO)NC(=O)[C@H](Cc1ccc(O)cc1)NC(=O)[C@H](CC(=O)O)NC(=O)[C@H](CO)NC(=O)[C@@H](NC(=O)[C@H](Cc1ccccc1)NC(=O)[C@@H](NC(=O)CNC(=O)[C@H](CCC(N)=O)NC(=O)C(C)(C)NC(=O)[C@@H](N)Cc1c[nH]cn1)[C@@H](C)O)[C@@H](C)O)C(=O)N[C@@H](CC(=O)O)C(=O)N[C@@H](C)C(=O)N[C@@H](CCCNC(=N)N)C(=O)N[C@@H](C)C(=O)N[C@@H](C)C(=O)N[C@@H](CCCCNC(=O)COCCOCCNC(=O)COCCOCCNC(=O)CC[C@H](NC(=O)CCCCCCCCCCCCCCC(=O)O)C(=O)O)C(=O)N[C@@H](CC(=O)O)C(=O)N[C@@](C)(Cc1ccccc1)C(=O)N[C@H](C(=O)N[C@@H](CCC(N)=O)C(=O)N[C@@H](Cc1c[nH]c2ccccc12)C(=O)N[C@@H](CC(C)C)C(=O)N[C@@H](CCS(C)(=O)=O)C(=O)N[C@@H](CC(=O)O)C(=O)N[C@H](C(N)=O)[C@@H](C)O)C(C)C [compound 39] (H-H[Aib]QGTFTSDYSKYLDARAAK([AEEA-AEEA-γGlu-C16 diacid])D[αMeF]VQWL[Met(O2)]DT-NH2)	9.48	2.93	9.96
CC(C)C[C@H](NC(=O)[C@H](Cc1ccc(O)cc1)NC(=O)[C@H](CCCCN)NC(=O)[C@H](CO)NC(=O)[C@H](Cc1ccc(O)cc1)NC(=O)[C@H](CC(=O)O)NC(=O)[C@H](CO)NC(=O)[C@@H](NC(=O)[C@H](Cc1ccccc1)NC(=O)[C@@H](NC(=O)CNC(=O)[C@H](CCC(N)=O)NC(=O)C(C)(C)NC(=O)[C@@H](N)Cc1c[nH]cn1)[C@@H](C)O)[C@@H](C)O)C(=O)N[C@@H](CC(=O)O)C(=O)N[C@@H](C)C(=O)N[C@@H](CCCNC(=N)N)C(=O)N[C@@H](C)C(=O)N[C@@H](C)C(=O)N[C@@H](CCC(N)=O)C(=O)N[C@@H](CCCCNC(=O)COCCOCCNC(=O)COCCOCCNC(=O)CC[C@H](NC(=O)CCCCCCCCCCCCCCCCCC(=O)O)C(=O)O)C(=O)N[C@@H](Cc1ccccc1)C(=O)N[C@H](C(=O)N[C@@H](CCC(N)=O)C(=O)N[C@@H](Cc1c[nH]c2ccccc12)C(=O)N[C@@H](CC(C)C)C(=O)N[C@@H](CCS(C)(=O)=O)C(=O)N[C@@H](CC(=O)O)C(=O)N[C@H](C(N)=O)[C@@H](C)O)C(C)C [compound 46] (H-H[Aib]QGTFTSDYSKYLDARAAQK([AEEA-AEEA-γGlu-C19 diacid])FVQWL[Met(O2)]DT-NH2; N-terminus assumed)	9.30	1.83	9.55
CC(C)C[C@H](NC(=O)[C@H](Cc1ccc(O)cc1)NC(=O)[C@H](CCCCN)NC(=O)[C@H](CO)NC(=O)[C@H](Cc1ccc(O)cc1)NC(=O)[C@H](CC(=O)O)NC(=O)[C@H](CO)NC(=O)[C@@H](NC(=O)[C@H](Cc1ccccc1)NC(=O)[C@@H](NC(=O)CNC(=O)[C@H](CCC(N)=O)NC(=O)C(C)(C)NC(=O)[C@@H](N)Cc1c[nH]cn1)[C@@H](C)O)[C@@H](C)O)C(=O)N[C@@H](CC(=O)O)C(=O)N[C@@H](C)C(=O)N[C@@H](CCCCN)C(=O)N[C@@H](C)C(=O)N[C@@H](C)C(=O)N[C@@H](CCCCNC(=O)COCCOCCNC(=O)COCCOCCNC(=O)CC[C@H](NC(=O)CCCCCCCCCCCCCCCCC(=O)O)C(=O)O)C(=O)N[C@@H](CC(=O)O)C(=O)N[C@@H](Cc1ccccc1)C(=O)N[C@H](C(=O)N[C@@H](CCC(N)=O)C(=O)N[C@@H](Cc1c[nH]c2ccccc12)C(=O)N[C@@H](CC(C)C)C(=O)N[C@@H](CCS(C)(=O)=O)C(=O)N[C@@H](CC(=O)O)C(=O)N[C@H](C(N)=O)[C@@H](C)O)C(C)C [compound 70] (H-H[Aib]QGTFTSDYSKYLDAKAAK([AEEA-AEEA-γGlu-C18 diacid])DFVQWL[Met(O2)]DT-NH2; N-terminus assumed)	8.96	2.3	9.30
CC(C)C[C@H](NC(=O)[C@H](Cc1ccc(O)cc1)NC(=O)[C@H](CCCCN)NC(=O)[C@H](CO)NC(=O)[C@H](Cc1ccc(O)cc1)NC(=O)[C@](C)(CC(=O)O)NC(=O)[C@H](CO)NC(=O)[C@@H](NC(=O)[C@H](Cc1ccccc1)NC(=O)[C@@H](NC(=O)CNC(=O)[C@H](CCC(N)=O)NC(=O)C(C)(C)NC(=O)[C@@H](N)Cc1c[nH]cn1)[C@@H](C)O)[C@@H](C)O)C(=O)N[C@@H](CC(=O)O)C(=O)N[C@@H](C)C(=O)N[C@@H](CCCNC(=N)N)C(=O)N[C@@H](C)C(=O)N[C@@H](C)C(=O)N[C@@H](CCCCNC(=O)COCCOCCNC(=O)COCCOCCNC(=O)CC[C@H](NC(=O)CCCCCCCCCCCCCCC(=O)O)C(=O)O)C(=O)N[C@@H](CC(=O)O)C(=O)N[C@@H](Cc1ccccc1)C(=O)N[C@H](C(=O)N[C@@H](CCC(N)=O)C(=O)N[C@@H](Cc1c[nH]c2ccccc12)C(=O)N[C@@H](CC(C)C)C(=O)N[C@@H](CCS(C)(=O)=O)C(=O)N[C@@H](CC(=O)O)C(=O)N[C@H](C(N)=O)[C@@H](C)O)C(C)C [compound 37] (H-H[Aib]QGTFTS[αMeD]YSKYLDARAAK([AEEA-AEEA-γGlu-C16 diacid])DFVQWL[Met(O2)]DT-NH2)	9.17	6.24	9.96
CC(C)C[C@H](NC(=O)[C@H](Cc1ccc(O)cc1)NC(=O)[C@H]1CCC[C@@H]1NC(=O)[C@H](CO)NC(=O)[C@H](Cc1ccc(O)cc1)NC(=O)[C@H](CC(=O)O)NC(=O)[C@H](CO)NC(=O)[C@@H](NC(=O)[C@H](Cc1ccccc1)NC(=O)[C@@H](NC(=O)CNC(=O)[C@H](CCC(N)=O)NC(=O)C(C)(C)NC(=O)[C@@H](N)Cc1c[nH]cn1)[C@@H](C)O)[C@@H](C)O)C(=O)N[C@@H](CC(=O)O)C(=O)NC(C)(C)C(=O)N[C@@H](CCCNC(=N)N)C(=O)N[C@@H](C)C(=O)N[C@@H](C)C(=O)N[C@@H](CCCCNC(=O)COCCOCCNC(=O)COCCOCCNC(=O)CC[C@H](NC(=O)CCCCCCCCCCCCCCC(=O)O)C(=O)O)C(=O)N[C@@H](CC(=O)O)C(=O)N[C@@H](Cc1ccccc1)C(=O)N[C@H](C(=O)N[C@H]1CCC[C@@H]1C(=O)N[C@@H](Cc1c[nH]c2ccccc12)C(=O)N[C@@H](CC(C)C)C(=O)N[C@@H](CCS(C)(=O)=O)C(=O)N[C@@H](CC(=O)O)C(=O)N[C@H](C(N)=O)[C@@H](C)O)C(C)C [compound 36] (H-H[Aib]QGTFTSDYS[X1]YLD[Aib]RAAK([AEEA-AEEA-γGlu-C16 diacid])DFV[X1]WL[Met(O2)]DT-NH2; N-terminus assumed)	9.64	0.65	9.44
CC(C)C[C@H](NC(=O)[C@H](Cc1ccc(O)cc1)NC(=O)[C@H](CCCCN)NC(=O)[C@H](CO)NC(=O)[C@H](Cc1ccc(O)cc1)NC(=O)[C@H](CC(=O)O)NC(=O)[C@H](CO)NC(=O)[C@@H](NC(=O)[C@H](Cc1ccccc1)NC(=O)[C@@H](NC(=O)CNC(=O)[C@H](CCC(N)=O)NC(=O)C(C)(C)NC(=O)[C@@H](N)Cc1c[nH]cn1)[C@@H](C)O)[C@@H](C)O)C(=O)N[C@@H](CC(=O)O)C(=O)N[C@@H](C)C(=O)N[C@@H](CCCNC(=N)N)C(=O)N[C@@H](C)C(=O)N[C@@H](C)C(=O)N[C@@H](CCC(N)=O)C(=O)N[C@@H](CCCCNC(=O)COCCOCCNC(=O)COCCOCCNC(=O)CC[C@H](NC(=O)CCCCCCCCCCCCCCCCCCC(=O)O)C(=O)O)C(=O)N[C@@H](Cc1ccccc1)C(=O)N[C@H](C(=O)N[C@@H](CCC(N)=O)C(=O)N[C@@H](Cc1c[nH]c2ccccc12)C(=O)N[C@@H](CC(C)C)C(=O)N[C@@H](CCS(C)(=O)=O)C(=O)N[C@@H](CC(=O)O)C(=O)N[C@H](C(N)=O)[C@@H](C)O)C(C)C [compound 44] (H-H[Aib]QGTFTSDYSKYLDARAAQK([AEEA-AEEA-γGlu-C20 diacid])FVQWL[Met(O2)]DT-NH2; N-terminus assumed)	9.66	0.92	9.62
